The record followed here is US8106055B2, “Substituted amide compounds” (Gruenenthal GmbH, priority 2007, dated 2012).

Experiment [1] deals with T1, serotonin (5-HT) reuptake (Rattus norvegicus, UniProt P31652).
T1 construct: synaptosomes are freshly isolated from areas of the rat brain; from tissue; host or cells: rat brain synaptosomes (P2 fraction)
As to the kind of experiment: Inhibition of serotonin (5HT) reuptake in synaptosomes from rat brain. The settings on record: test concentration of 10 μM. The class given is biochemical. Summed up:
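Freshly isolated rat brain synaptosomes (P2 fraction) used for 5-HT reuptake. Test compound at 10 μM, activity given as % inhibition.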

Experiment [2] has as its target T2, human bradykinin 1 receptor (B1R) (Homo sapiens, UniProt P46663).
T2 construct: expressed in transfected cells; host or cells: CHO K1 cells
T2 sequence (P46663 1-353): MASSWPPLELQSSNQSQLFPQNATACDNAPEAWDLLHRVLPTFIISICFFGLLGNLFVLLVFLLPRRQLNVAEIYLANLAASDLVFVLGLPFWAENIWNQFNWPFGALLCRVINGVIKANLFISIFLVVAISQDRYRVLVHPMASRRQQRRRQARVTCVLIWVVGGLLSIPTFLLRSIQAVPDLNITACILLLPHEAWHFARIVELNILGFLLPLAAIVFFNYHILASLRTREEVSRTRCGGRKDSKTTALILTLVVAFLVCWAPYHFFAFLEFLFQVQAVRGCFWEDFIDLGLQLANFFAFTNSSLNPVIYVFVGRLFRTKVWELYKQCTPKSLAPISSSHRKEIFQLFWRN
As to the kind of experiment: Functional investigation on the human bradykinin 1 receptor (B1R), Ca2+ FLIPR assay in CHO K1 hB1R cells. The class given is cell-based. Particulars: B1R antagonism human; test substance 10 μM; Ca2+ FLIPR, CHO K1 hB1R cells. The method, boiled down: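 Cells were dye-loaded with Fluo-4 plus probenecid, then test substances added and Ca2+ influx compared with agonist control for % activation. After 10-20 min, EC80 agonist (Lys-Des-Arg9-bradykinin human; Des-Arg9-bradykinin rat) was applied; suppression gave % inhibition and IC50 values.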

T1 sequence (P31652 whole entry): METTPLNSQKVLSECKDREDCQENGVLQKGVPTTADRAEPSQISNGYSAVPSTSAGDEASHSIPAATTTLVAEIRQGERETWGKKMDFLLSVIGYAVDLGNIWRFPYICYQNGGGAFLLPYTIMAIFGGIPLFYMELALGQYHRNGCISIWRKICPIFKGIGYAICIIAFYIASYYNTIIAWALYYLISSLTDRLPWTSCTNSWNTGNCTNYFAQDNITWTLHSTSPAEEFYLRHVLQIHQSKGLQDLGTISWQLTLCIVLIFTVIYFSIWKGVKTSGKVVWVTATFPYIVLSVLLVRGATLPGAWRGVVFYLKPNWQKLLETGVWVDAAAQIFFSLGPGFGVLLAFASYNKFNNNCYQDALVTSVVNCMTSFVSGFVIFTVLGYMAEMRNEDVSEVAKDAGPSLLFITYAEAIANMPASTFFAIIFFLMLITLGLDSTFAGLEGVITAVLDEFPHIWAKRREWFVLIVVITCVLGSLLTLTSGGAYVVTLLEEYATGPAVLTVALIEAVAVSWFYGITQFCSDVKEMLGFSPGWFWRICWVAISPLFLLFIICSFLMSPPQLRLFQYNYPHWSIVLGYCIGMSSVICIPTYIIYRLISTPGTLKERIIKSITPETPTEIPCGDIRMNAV

On to `CN(C)C(c1cccc(F)c1)C1CCC(CCNC(=O)COCCN(Cc2ccccc2)S(=O)(=O)c2ccccc2)CC1` (centres unmarked) [Example 278], for which the “5-HT (inhibition of reuptake of serotonin, % inhibition)” value in experiment [1] came to 98%. Also, the “B1R Ant. h [10 μM] % Inhibition” value in experiment [2] was 16%.
Regarding `COc1cc(C)c(S(=O)(=O)N2CCCC(OCC(=O)NC3CCC(C(c4cccc(F)c4)N(C)C)CC3)C2)c(C)c1C` (centres unmarked) [Example 279], in experiment [1], the “5-HT (inhibition of reuptake of serotonin, % inhibition)” value came to 85%. For the same compound, in experiment [2], the “B1R Ant. h [10 μM] % Inhibition” value is on record as 23%.
As to `COc1ccc(S(=O)(=O)N2CCCCC2COCC(=O)NCC2CCC(C(c3ccc(Cl)cc3)N(C)C)CC2)c(OC)c1` (centres unmarked) [Example 280], the “5-HT (inhibition of reuptake of serotonin, % inhibition)” value in experiment [1] was 78%. Moreover, in experiment [2], the “B1R Ant. h [10 μM] % Inhibition” value is listed as 51%.
The corresponding values for `COc1ccc(S(=O)(=O)N2CCCCC2COCC(=O)NCCC2CCC(C(c3cccc(F)c3)N(C)C)CC2)c(OC)c1` (centres unmarked) [Example 281] are 89% and 0%.
Consider `CN(C)C(c1cccs1)C1CCC(NC(=O)COCCN(C)S(=O)(=O)c2ccc(OC(F)(F)F)cc2)CC1` (centres unmarked) [Example 282], for which the “5-HT (inhibition of reuptake of serotonin, % inhibition)” value in experiment [1] is 52%. The “B1R Ant. h [10 μM] % Inhibition” value in experiment [2] is on record as −31%.
Taken in the same sequence, the figures for `CN(C)C(c1cccc(F)c1)C1CCC(NC(=O)COC2CCN(S(=O)(=O)c3ccc(Cl)cc3Cl)C2)CC1` (centres unmarked) [Example 283] were 91% and 50%.
Taken in the same sequence, the figures for `CN(C)C(c1ccc(Cl)cc1)C1CCC(CNC(=O)COCCN(C)S(=O)(=O)c2ccc(Cl)cc2)CC1` (centres unmarked) [Example 284] were 87% and 48%.
Taken in the same sequence, the figures for `CN(C)C(c1ccc(F)cc1)C1CCC(CCNC(=O)COCCN(C)S(=O)(=O)c2c(Cl)cccc2Cl)CC1` (centres unmarked) [Example 285] were 89% and 97%.
For `COc1cc(C)c(S(=O)(=O)N2CCC(OCC(=O)NC3CCC(C(c4cccc(F)c4)N(C)C)CC3)CC2)c(C)c1C` (centres unmarked) [Example 286], the “5-HT (inhibition of reuptake of serotonin, % inhibition)” value in experiment [1] is listed as 92%. Further, the “B1R Ant. h [10 μM] % Inhibition” value in experiment [2] came to 37%.
The corresponding values for `COc1cc(C)c(S(=O)(=O)N2CCC(OCC(=O)NCC3CCC(C(c4cccc(F)c4)N(C)C)CC3)CC2)c(C)c1C` (centres unmarked) [Example 287] are 96% and 1%.
The corresponding values for `COc1ccc(S(=O)(=O)N2Cc3ccccc3CC2COCC(=O)NCC2CCC(C(c3ccc(F)cc3)N(C)C)CC2)cc1` (centres unmarked) [Example 288] are 94% and 62%.
With `CN(C)C(c1ccc(Cl)cc1)C1CCC(CCNC(=O)COCCN(C)S(=O)(=O)c2cccc(C(F)(F)F)c2)CC1` (centres unmarked) [Example 289], in experiment [1], the “5-HT (inhibition of reuptake of serotonin, % inhibition)” value worked out at 94%. In addition, the “B1R Ant. h [10 μM] % Inhibition” value in experiment [2] is 51%.
The corresponding values for `CN(C)C(c1ccc(F)cc1)C1CCC(NC(=O)COC2CCN(S(=O)(=O)c3ccc(Cl)cc3Cl)C2)CC1` (centres unmarked) [Example 290] are 89% and 37%.
The corresponding values for `CN(C)C(c1ccc(Cl)cc1)C1CCC(CCNC(=O)COCCN(C)S(=O)(=O)c2ccc(Cl)cc2Cl)CC1` (centres unmarked) [Example 291] are 81% and 105%.
In the case of `COc1ccc(S(=O)(=O)N(C)CCOCC(=O)NCCC2CCC(C(c3cccc(F)c3)N(C)C)CC2)cc1` (centres unmarked) [Example 292], the “5-HT (inhibition of reuptake of serotonin, % inhibition)” value in experiment [1] turned out to be 83%. In addition, the “B1R Ant. h [10 μM] % Inhibition” value in experiment [2] was 20%.
The corresponding values for `COc1ccc(S(=O)(=O)N(C)CCOCC(=O)NCCC2CCC(C(c3cccc(F)c3)N(C)C)CC2)cc1OC` (centres unmarked) [Example 293] are 95% and −7%.
Turning to `CN(C)C(c1ccc(Cl)cc1)C1CCC(CNC(=O)COCC2CCCN(S(=O)(=O)c3ccccc3)C2)CC1` (centres unmarked) [Example 294], the “5-HT (inhibition of reuptake of serotonin, % inhibition)” value in experiment [1] was 88%. In addition, the “B1R Ant. h [10 μM] % Inhibition” value in experiment [2] is listed as −3%.
The corresponding values for `CN(C)C(c1cccc(F)c1)C1CCC(CCNC(=O)COCC2CCCN(S(=O)(=O)c3ccccc3)C2)CC1` (centres unmarked) [Example 295] are 99% and 7%.
Taken in the same sequence, the figures for `CN(C)C(c1cccc(F)c1)C1CCC(CNC(=O)COCCN(Cc2ccccc2)S(=O)(=O)c2ccccc2)CC1` (centres unmarked) [Example 296] were 96% and −1%.
Taken in the same sequence, the figures for `CN(C)C(c1cccc(F)c1)C1CCC(NC(=O)COCCN(C)S(=O)(=O)c2cccc(C(F)(F)F)c2)CC1` (centres unmarked) [Example 297] were 86% and 15%.
In the case of `COc1cc(C)c(S(=O)(=O)N(C)CCOCC(=O)NCC2CCC(C(c3ccc(Cl)cc3)N(C)C)CC2)c(C)c1C` (centres unmarked) [Example 298], the “5-HT (inhibition of reuptake of serotonin, % inhibition)” value in experiment [1] came out at 79%. Moreover, in experiment [2], the “B1R Ant. h [10 μM] % Inhibition” value was found to be 103%.
Take `CN(C)C(c1ccc(Cl)cc1)C1CCC(CNC(=O)COC2CCN(S(=O)(=O)c3ccccc3)C2)CC1` (centres unmarked) [Example 299]: the “5-HT (inhibition of reuptake of serotonin, % inhibition)” value in experiment [1] was 103%. For the same compound, the “B1R Ant. h [10 μM] % Inhibition” value in experiment [2] was −15%.
With `CN(C)C(c1ccccc1)C1CCC(CNC(=O)COC2CCN(S(=O)(=O)c3ccccc3)CC2)CC1` (centres unmarked) [Example 300], the “5-HT (inhibition of reuptake of serotonin, % inhibition)” value in experiment [1] stood at 94%. Moreover, the “B1R Ant. h [10 μM] % Inhibition” value in experiment [2] is reported as −35%.
The corresponding values for `CN(C)C(c1ccc(Cl)cc1)C1CCC(CNC(=O)COC2CCCN(S(=O)(=O)c3ccccc3)C2)CC1` (centres unmarked) [Example 301] are 92% and 2%.
The corresponding values for `CN(C)C(c1cccc(F)c1)C1CCC(CNC(=O)COCCN(C)S(=O)(=O)c2cccc(C(F)(F)F)c2)CC1` (centres unmarked) [Example 302] are 92% and 38%.
Taken in the same sequence, the figures for `CN(C)C(c1cccc(F)c1)C1CCC(CNC(=O)COCCN(C)S(=O)(=O)c2ccc(OC(F)(F)F)cc2)CC1` (centres unmarked) [Example 303] were 83% and −19%.
Regarding `Cc1ccc(S(=O)(=O)N2CCC(OCC(=O)NCC3CCC(C(c4ccc(Cl)cc4)N(C)C)CC3)C2)cc1` (centres unmarked) [Example 304], the “5-HT (inhibition of reuptake of serotonin, % inhibition)” value in experiment [1] is recorded as 88%. Also, the “B1R Ant. h [10 μM] % Inhibition” value in experiment [2] is 22%.
As to `Cc1ccc(S(=O)(=O)N2CCC(OCC(=O)NCCC3CCC(C(c4ccc(Cl)cc4)N(C)C)CC3)C2)cc1` (centres unmarked) [Example 305], the “5-HT (inhibition of reuptake of serotonin, % inhibition)” value in experiment [1] turned out to be 88%. The “B1R Ant. h [10 μM] % Inhibition” value in experiment [2] was found to be 30%.
`Cc1ccc(S(=O)(=O)N(C)CCOCC(=O)NCCC2CCC(C(c3ccc(Cl)cc3)N(C)C)CC2)cc1` (centres unmarked) [Example 306]: the “5-HT (inhibition of reuptake of serotonin, % inhibition)” value in experiment [1] was determined as 91%. In addition, the “B1R Ant. h [10 μM] % Inhibition” value in experiment [2] was 38%.
Taken in the same sequence, the figures for `COc1cc(C)c(S(=O)(=O)N2CCC(OCC(=O)NCCC3CCC(C(c4cccc(F)c4)N(C)C)CC3)C2)c(C)c1` (centres unmarked) [Example 307] were 97% and 105%.
The corresponding values for `CN(C)C(c1cccc(F)c1)C1CCC(CNC(=O)COCCN2CCN(S(=O)(=O)c3ccccc3)CC2)CC1` (centres unmarked) [Example 308] are 93% and −1%.
